Test results: patent publication US9840494B2, “Quinazoline derivative” (Tianjin Hemay Oncology Pharmaceutical Co., Ltd., priority 2013, dated 2017)
Where two headings read alike, the source gives them in different places.

Experiment: Bioavailability assay in rats, Experiment I (dihydrochloride)
Assay type: in vivo
Settings: Wistar rats; for half-life: read-out: T½ elimination half-life (converted)
Protocol: Experiment I. Bioavailability Assay for N-[4-(3-chloro-4-fluorophenylamino)-7-(2-methoxyethoxy)quinazolin-6-yl]-2-[1-(2-methoxyethyl)piperidin-4-ylidene]acetamide Dihydrochloride in Rats
12 Wistar rats (male, weighing 200-220 g) were purchased from Beijing Vital River Laboratory Animal Technology Co., Ltd. License No.: SCXK (Beijing) 2007-0001.
2.1 30 mg of N-[4-(3-chloro-4-fluorophenylamino)-7-(2-methoxyethoxy)quinazolin-6-yl]-2-[1-(2-methoxyethyl)piperidin-4-ylidene]acetamide dihydrochloride was weighted, and 6 ml of ultrapure water was added thereto to prepare a sample solution (5 mg/ml)) for use in intravenous administration.
2.2 30 mg of N-[4-(3-chloro-4-fluorophenylamino)-7-(2-methoxyethoxy)quinazolin-6yl]-2-[1-(2-methoxyethyl)piperidin-4-ylidene]acetamide dihydrochloride was weighted, and 12 ml of ultrapure water was added thereto to prepare a sample solution (2.5 mg/ml)) for use in intragastric administration.
4.1.1 HPLC Conditions: chromatographic column: octadecyl-bonded silica gel as filler (4.6 mm×50 mm, 1.8 μm), Agilent; mobile phase: methanol: 5 mM ammonium acetate (PH4.0) (60: 40); flow rate: 1 ml/min; column temperature: 40° C.
Ion: 544.3→457.1 (N-[4-(3-chloro-4-fluorophenylamino)-7-(2-methoxyethoxy)quinazolin-6-yl]-2-[1-(2-methoxyethyl)piperidin-4-ylidene]acetamide dihydrochloride)
Dwell Time: 80; fragment voltage: 180; collision energy: 25;
1 mg of N-[4-(3-chloro-4-fluorophenylamino)-7-(2-methoxyethoxy)quinazolin-6-yl]-2-[1-(2-methoxyethyl)piperidin-4-ylidene]acetamide dihydrochloride was weighted and formulated into a solution in methanol (1 mg/ml)). The solution was then diluted stepwise into standard solutions of 50 ng/ml, 100 ng/ml, 200 ng/ml, 500 ng/ml, 1 μg/ml, 2 μg/ml, 5 μg/ml, 10 μg/ml, 20 μg/ml, 50 μg/ml, and 100 μg/ml. 10 μl of the standard solutions were separately pipetted into centrifuge tubes (1.5 ml). 10 μl of internal standard (1 μg/ml Lipitor solution in methanol) was added thereto. 100 μl of rat plasma was then added thereto. The mixture was vortexed. Then 200 μl of acetonitrile was added to precipitate protein, then vortexed for 1 min and centrifuged at 16000 r/min for 8 min 10 μl of the supernatant was directly injected for measurement.
12 rats were randomly divided into two groups, i.e. six rats per group. These rats were fasted and ad libitum accessed to water for 12 hours before administration. Blank blood (about 0.5 ml) of each rat was withdrawn, and then N-[4-(3-chloro-4-fluorophenylamino)-7-(2-methoxyethoxy)quinazolin-6-yl]-2-[1-(2-methoxyethyl)piperidin-4-ylidene]acetamide dihydrochloride (20 mg/kg) was administrated via intragastric gavage and tail intravenous injection, respectively. Blood (about 0.5 ml) was withdrawn from the orbital venous plexus at different time points after the administration (blood collection points for tail intravenous administration were: 5 min, 15 min, 0.5 h, 1 h, 2 h, 3 h, 4 h, 6 h, 8 h, 12 h, 18 h, 24 h, 30 h; and blood collection time-points for intragastric administration were: 5 min, 10 min, 20 min, 30 min, 45 min, 1 h, 2 h, 3 h, 4 h, 6 h, 8 h, 12 h, 18 h, 24 h, 30 h). The blood was drawn into a heparinized centrifuge tube and centrifuged at 8000 r/min for 10 min 100 μl of the plasma was pipetted into a centrifuge tube (1.5 ml), and 10 μl of internal standard (1 μg/ml atorvastatin hemi-calcium salt solution in methanol) was added thereto. The resulting mixture was vortexed. Then 200 μl of acetonitrile was added to precipitate protein, vortexed for 1 min and centrifuged at 16000 r/min for 8 min The supernatant was recovered, and 10 μl of the supernatant was directly injected for detection.
5.1 A standard curve with the natural logarithm of the sample concentration as abscissa and the natural logarithm of the peak area ratio of the sample to the internal standard as ordinate was established as: y=1.008x−4.149; R2=0.998
Method for the calculation of bioavailability: F=(AUCig×Div)/(AUCiv×Dig)×100% […]

[1] = male, rat, plasma, oral, 20 mg/kg ig, read-out: Average Plasma Drug Concentration
[2] = male, rat, plasma, po, 20 mg/kg ig
[3] = male, rat, plasma, 20 mg/kg iv, read-out: Average Plasma Drug Concentration

In the case of `COCCOc1cc2ncnc(Nc3ccc(F)c(Cl)c3)c2cc1NC(=O)C=C1CCN(CCOC)CC1.Cl.Cl` [Compound 2, N-[4-(3-chloro-4-fluorophenylamino)-7-(2-methoxyethoxy)quinazolin-6yl]-2-[1-(2-methoxyethyl)piperidin-4-ylidene]acetamide dihydrochloride], the “K (elimination rate constant)” value (20 mg/kg iv) is reported as 0.14, the bioavailability (male, rat, plasma, oral, 20 mg/kg ig vs 20 mg/kg iv) is reported as 56.9% and the concentration at 0.167 h (male, rat, plasma, oral, 20 mg/kg ig, 0.167 h, read-out: Average Plasma Drug Concentration) is reported as 39.4 ng/mL. It also gave a concentration at 0.33 h (male, rat, plasma, oral, 20 mg/kg ig, 0.33 h, read-out: Average Plasma Drug Concentration) of 145 ng/mL, a concentration at 0.5 h [1] of 202 ng/mL and a concentration at 0.75 h (male, rat, plasma, oral, 20 mg/kg ig, 0.75 h, read-out: Average Plasma Drug Concentration) of 285 ng/mL. The concentration at 1 h [1] was 342 ng/mL, the concentration at 2 h [1] was 342 ng/mL and the concentration at 3 h [1] was 406 ng/mL. For the same compound, the concentration at 4 h [1] was 468 ng/mL, the concentration at 6 h [1] was 536 ng/mL and the concentration at 8 h [1] was 495 ng/mL. It also gave a concentration at 12 h [1] of 330 ng/mL, a concentration at 18 h [1] of 139 ng/mL and a concentration at 24 h [1] of 72.4 ng/mL. It also gave a concentration at 30 h [1] of 22.7 ng/mL, a concentration at 0.083 h (male, rat, plasma, oral, 20 mg/kg intragastric gavage (ig), read-out: Average Plasma Drug Concentration) of 17.1 ng/mL and an AUC [2] of 7350 ng·h/mL. It also gave a half-life [2] of 4.73 h, an AUC (male, rat, plasma, 20 mg/kg iv) of 12900 ng·h/mL and a concentration at 0.25 h (male, rat, plasma, 20 mg/kg iv, 0.25 h, read-out: Average Plasma Drug Concentration) of 3240 ng/mL. It also gave a concentration at 0.5 h [3] of 2700 ng/mL, a concentration at 1 h [3] of 1720 ng/mL and a concentration at 2 h [3] of 1330 ng/mL. The concentration at 3 h [3] was 989 ng/mL, the concentration at 4 h [3] was 748 ng/mL and the concentration at 6 h [3] was 557 ng/mL. It also gave a concentration at 8 h [3] of 547 ng/mL, a concentration at 12 h [3] of 325 ng/mL and a concentration at 18 h [3] of 181 ng/mL. The concentration at 24 h [3] was 80.8 ng/mL, the concentration at 30 h [3] was 29.6 ng/mL and the half-life (male, rat, plasma, 20 mg/kg iv) was 5.18 h. For the same compound, the concentration at 0.083 h (male, rat, plasma, 20 mg/kg tail intravenous injection (iv), read-out: Average Plasma Drug Concentration) was 4850 ng/mL.
